{"source": "patent US20230310559A1", "about": "“Use of Amylase or Maltose to Treat or Prevent Neurodegeneration” (St. Jude Children's Research Hospital, Inc., priority 2020, published 2023)", "type_in_all_cases": "cell-based", "key": {"[1]": {"test_system": "human cortical brain organoids", "experiment": "Multielectrode array recording of human cortical brain organoids", "experimental": "Multielectrode Array Recording of Human Cortical Brain Organoids. Spontaneous neuronal activity of cortical organoids was recorded on the Axion Maestro Edge multielectrode array system. Two different methods for plating and recording were optimized from two-month old and three-month old organoids, to ensure maximum contact with electrodes. Method 1 (Two-month old cortical organoids; Maltose treatment): Growth factor reduced-cell culture matrix sold under the tradename […]® (Corning) was diluted 1:3 in chilled media containing BrainPhys and 10% ES-FBS and kept on ice. D60 cortical organoids were first sliced in half using a pair of fine tweezers. Each half was then plated onto one well of a 24-well Cytoview plate (Axion Biosystems), where each well contained a grid of 16 electrodes. After placing the organoid slice onto a dry and empty well using a sterile flat spatula, 15 μL of the chilled and diluted cell culture matrix sold under the tradename […]® was added onto the slice. A P10 tip was used to position the slice to the center of the well over the grid of electrodes. Three such plates were prepared. The plates were incubated at 37° C. for 3 hours for the cell culture matrix to solidify over the organoid slices. After 3 hours, 500 μL of BrainPhys media supplemented with 100× N2 supplement, 50× B27 supplement without Vitamin A, 10 ng/ml BDNF and 10 ng/ml GDNF were added slowly to each well. Every three days, 300 μL media in each well was replaced with fresh media three days and six days after plating. Seven days after plating, the plates were treated with either control or maltose containing media; all treatment conditions were included in each of the four plates. Three days after treatment, spontaneous activity was recorded from each plate. The plates were then subjected to heat shock for 7 hours at 41.5° C. Spontaneous activity in each plate was recorded again after the heat shock. This recording was repeated after 17 hours of recovery and after 43 hours of recovery. Data was analyzed using the Neural Metric tool (Axion Biosystems)."}, "[2]": {"test_system": "human cortical brain organoids", "experiment": "Whole-mount immunostaining of human cortical brain organoids (p62, poly-ubiquitin)", "experimental": "Whole-Mount Immunostaining of Human Cortical Brain Organoids. Similar to the above-referenced procedures described for Drosophila tissues, human cortical brain organoids were immunostained with the following modifications: fixation and washes were done with 0.4% TRITON⋅ X-100; fixation was carried out for 50 minutes at room temperature; and organoids were blocked for >1 hour with PBS with 0.4% TRITON X-100 and 5% bovine serum albumin (BSA) before incubation with primary antibodies.\n(§1) Drug Treatment of Human Cortical Brain Organoids. An additional 0.5 mL of culture medium was added to reach the final amount of 1 mL with 0, 3, 5, 10, 20, 40, or 80 mg of maltose per mL, or with 10, 20, 40 μL of porcine alpha-Amylase (MP Biomedicals) per mL, as indicated. After culturing at 37° C. for 3 days, the organoids were kept for 7 hours at 41.5° C. for heat shock, or at 37° C. (control). Subsequently, the organoids were collected and snap frozen. The organoids were then processed as described above for the western blot analysis of detergent-soluble and detergent-insoluble fractions.\nWhole-mount immunostaining of organoids was carried out following similar procedures as described above for Drosophila brains and retinas, with anti-poly-ubiquitin (FK2; Enzo Life Sciences) and anti-p62/SQSTM1 antibodies (Cell Signaling Technologies). […]"}, "[3]": {"test_system": "human cortical brain organoids", "experiment": "RNA-sequencing of human cortical brain organoids", "experimental": "RNA-Sequencing of Human Cortical Brain Organoids. RNA sequencing libraries for each sample were prepared with 1 μg total RNA using the Illumina TRUSEQ® RNA Sample Prep v2 Kit per the manufacturer's instructions, and sequencing was completed on the Illumina HiSeq 2000. The 100 bp paired-end reads were trimmed, filtered against quality (Phred-like Q20 or greater) and length (50 bp or longer), and aligned to a human reference sequence GRCh38 (UCSC hg38), using CLC Genomics Workbench v12.0.1 (Qiagen). For gene expression comparisons, the TPM (transcript per million) counts were obtained from the RNA-Seq Analysis tool. A total of 19749 genes with TPM greater than one in at least one sample were in the principal component analysis (PCA) and the gene expression analysis was performed using the non-parametric ANOVA using the Kruskal-Wallis and Dunn's tests on log-transformed TPM counts between three replicates of each experimental group, implemented in Partek Genomics Suite v7.0 software (Partek Inc.).\nas §1"}, "[4]": {"conditions": "after heat shock, compared to control-treated organoids"}}, "note": "“Also recorded” adds a separate entry of the source."}
{"molecule": "OC[C@H]1O[C@H](O[C@H]2[C@H](O)[C@@H](O)C(O)O[C@@H]2CO)[C@H](O)[C@@H](O)[C@@H]1O", "note": "(mixture of isomers) [maltose]", "values": [{"measurement": "bursts", "setting": "[1]; [4]", "result": "more bursts"}, {"measurement": "number of active electrodes", "setting": "[1]; [4]", "result": "higher number of active electrodes"}, {"measurement": "number of bursting electrodes", "setting": "[1]; [4]", "result": "higher number of bursting electrodes"}, {"measurement": "number of spikes", "setting": "[1]; [4]", "result": "higher number of spikes"}, {"measurement": "neuronal activity (number of active electrodes, bursting electrodes, network bursts)", "setting": "[1]; immediately after and at 17 hours and 43 hours after heat shock", "result": "significantly preserved; also recorded: higher neuronal activity"}, {"measurement": "levels of maltose effective in preserving neuronal activity", "setting": "[1]; organoids after heat shock", "result": "≤ 5", "unit": "mg/mL"}, {"measurement": "neuronal activity (number of active electrodes, bursting electrodes, network bursts)", "setting": "[1]; steady state / pre-heat shock", "result": "not modulated"}, {"measurement": "p62 and ubiquitin immunoreactivity", "setting": "[2]; heat-shocked organoids, compared to controls", "result": "significantly decreased"}, {"measurement": "levels of p62 and poly-ubiquitinated proteins (immunostaining)", "setting": "[2]; organoids, control conditions (no heat shock)", "result": "no change"}, {"measurement": "expression of gene clusters involved in protein quality control (proteasome components, proteases/peptidases)", "setting": "[3]; human cortical brain organoids", "result": "promoted the expression"}, {"measurement": "gene expression changes induced by heat shock (RNA-seq)", "setting": "[3]; human cortical brain organoids", "result": "prevented some of the gene expression changes"}, {"measurement": "mRNA and proteins levels of CRYA (a-crystallin)", "setting": "[3]; human cortical organoids", "result": "increased"}]}
